Test [1] has as its target T1, C-RAF (Homo sapiens, UniProt P04049, Y340E/Y341E).
T1 construct: His tag (implied by nickel chromatography) (cleaved yes); StrepII tag (cleaved yes); made in house; host or cells: Sf9 insect cells (baculovirus), CRAF and h14-3-3 zeta co-expressed; MEK1 substrate from E. coli
Nature of the test: In vitro Raf activity determination (Alpha Screen, biotinylated kinase-dead MEK1 substrate), C-Raf. Format: biochemical. Particulars: c-Raf approximately 4 nM; ATP 1 μM; pre-incubation 60 minutes; reaction 1 hour at room temperature. The text has this:
CRAF cDNA was subcloned as full length protein, with Y340E and Y341E activating mutations, into a baculovirus expression vector for Sf9 insect cell expression. h14-3-3 zeta cDNA was subcloned into a baculovirus expression vector for SF9 insect cell expression. Sf9 cells co-expressing both proteins were lysed and subjected to immobilized nickel chromatography and eluted with Imidazole. A second column (StrepII binding column) was used and eluted with desthiobiotin. Protein Tags were removed using Prescission enzyme and the protein was further purified using a flowthrough step to remove tags.
C-Raf TR refers to a truncated C-Raf protein, a Δ1-324 deletion mutant. C-Raf FL refers to the full-length C-Raf protein.
(§1) Full length MEK1 with an inactivating K97R ATP binding site mutation is utilized as a RAF substrate. The MEK1 cDNA was subcloned with an N-terminal (his)6 tag into a vector for E. Coli expression. The MEK1 substrate was purified from E. Coli lysate by nickel affinity chromatography followed by anion exchange. The final MEK1 preparation was biotinylated (Pierce EZ-Link Sulfo-NHS-LC-Biotin) and concentrated.
(§2) Assay Materials: Assay buffer is 50 mM Tris, pH 7.5, 15 mM MgCl2, 0.01% Bovine Serum Albumin (BSA) and 1 mM dithiothreitol (DTT); Stop buffer is 60 mM ethylenediaminetetraacetic acid (EDTA) and 0.01% Tween® 20; b-Raf (V600E), active; biotinylated Mek, kinase dead; Alpha Screen detection kit (available from PerkinElmer™, #6760617R); Anti phospho-MEK1/2 (available from Cell Signaling Technology, Inc. #9121); 384 well low volume assay plates (White Greiner® plates).
(§3) Assay conditions: b-Raf (V600E) approximately 4 pM; c-Raf approximately 4 nM; biotinylated Mek, kinase dead approximately 10 nM; ATP 10 μM for BRAF (V600E) and 1 μM for CRAF; Pre-incubation time with compounds 60 minutes at room temperature; Reaction time 1 or 3 hours at room temperature.
(§4) Assay protocol: Raf and biotinylated Mek (kinase dead) were combined at 2× final concentrations in assay buffer (50 mM Tris, pH 7.5, 15 mM MgCl2, 0.01% BSA and 1 mM DTT) and dispensed […] per well in assay plates (Greiner white 384 well assay plates #781207) containing […] of 40× of a Raf kinase inhibitor test compound diluted in 100% DMSO. The plate was incubated for 60 minutes at room temperature. The Raf kinase activity reaction was started by the addition of […] per well of 2×ATP diluted in assay buffer. After 3 hours (b-Raf(V600E)) or 1 hour (c-Raf). The reactions were stopped and the phosphorylated product was measured using a rabbit anti-p-MEK (Cell Signaling, #9121) antibody and the Alpha Screen IgG (ProteinA) detection Kit (PerkinElmer #6760617R), by the addition of […] to the well of a mixture of the antibody (1:2000 dilution) and detection beads (1:2000 dilution of both beads) in Stop/bead buffer (25 mM EDTA, 50 mM Tris, pH 7.5, 0.01% Tween20). The additions were carried out under dark conditions to protect the detection beads from light. A lid was placed on top of the plate and incubated for 1 hour at room temperature, after which the luminescence was read on a PerkinElmer Envision instrument. The concentration of each compound for 50% inhibition (IC50) was calculated by non-linear regression using XL Fit data analysis software.

Test [2] concerns the target T2, b-Raf (V600E) (Homo sapiens, UniProt P15056, V600E).
T2 construct: made in house
The experiment in a line: In vitro Raf activity determination (Alpha Screen, biotinylated kinase-dead MEK1 substrate), B-Raf. Format: biochemical. Particulars: b-Raf (V600E) approximately 4 pM; ATP 10 μM; pre-incubation 60 minutes; reaction 3 hours at room temperature. As for the experimental part:
as §1, §2, §3, §4

In general, IC50 refers to the midpoint of a concentration-inhibition curve.

The structures appear in SMILES notation.

T2 sequence (P15056 whole entry V600E): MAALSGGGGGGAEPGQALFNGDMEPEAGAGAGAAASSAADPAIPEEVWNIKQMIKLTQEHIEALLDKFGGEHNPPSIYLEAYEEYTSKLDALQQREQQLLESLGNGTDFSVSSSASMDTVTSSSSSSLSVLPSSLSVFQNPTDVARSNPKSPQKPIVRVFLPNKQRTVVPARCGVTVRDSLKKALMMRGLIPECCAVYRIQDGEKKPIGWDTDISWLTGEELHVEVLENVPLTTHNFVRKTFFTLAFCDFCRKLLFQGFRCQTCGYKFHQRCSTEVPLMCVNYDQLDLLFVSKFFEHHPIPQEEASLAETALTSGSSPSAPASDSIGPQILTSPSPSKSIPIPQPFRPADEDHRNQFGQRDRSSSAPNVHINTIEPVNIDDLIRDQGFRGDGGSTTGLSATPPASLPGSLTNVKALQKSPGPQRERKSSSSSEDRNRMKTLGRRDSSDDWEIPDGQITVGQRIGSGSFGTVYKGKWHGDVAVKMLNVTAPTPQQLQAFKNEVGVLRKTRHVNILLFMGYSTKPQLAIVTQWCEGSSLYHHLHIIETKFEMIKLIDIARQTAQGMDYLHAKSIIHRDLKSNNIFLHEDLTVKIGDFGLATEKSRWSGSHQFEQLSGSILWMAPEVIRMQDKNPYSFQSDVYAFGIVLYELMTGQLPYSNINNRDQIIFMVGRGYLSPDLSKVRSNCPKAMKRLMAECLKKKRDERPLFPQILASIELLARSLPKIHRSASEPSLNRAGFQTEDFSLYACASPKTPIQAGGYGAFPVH
T1 sequence (P04049 whole entry Y340E/Y341E): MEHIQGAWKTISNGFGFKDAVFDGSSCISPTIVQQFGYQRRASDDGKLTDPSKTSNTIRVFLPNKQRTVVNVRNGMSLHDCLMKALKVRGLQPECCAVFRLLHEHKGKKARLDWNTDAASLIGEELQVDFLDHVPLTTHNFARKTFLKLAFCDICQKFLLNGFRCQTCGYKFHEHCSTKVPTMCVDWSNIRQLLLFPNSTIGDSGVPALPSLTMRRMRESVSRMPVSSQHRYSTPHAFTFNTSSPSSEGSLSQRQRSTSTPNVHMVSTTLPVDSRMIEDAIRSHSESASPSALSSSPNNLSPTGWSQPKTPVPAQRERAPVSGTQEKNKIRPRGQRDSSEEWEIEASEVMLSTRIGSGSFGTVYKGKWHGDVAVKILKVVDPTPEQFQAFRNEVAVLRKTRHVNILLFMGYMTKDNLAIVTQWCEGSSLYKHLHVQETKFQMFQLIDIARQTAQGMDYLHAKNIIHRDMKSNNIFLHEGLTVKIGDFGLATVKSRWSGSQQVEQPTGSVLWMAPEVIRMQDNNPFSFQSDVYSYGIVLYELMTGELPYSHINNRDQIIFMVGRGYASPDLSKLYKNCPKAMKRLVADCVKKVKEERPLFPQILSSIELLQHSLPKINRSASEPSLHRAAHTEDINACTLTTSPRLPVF
T1 sequence (P63104 whole entry partner): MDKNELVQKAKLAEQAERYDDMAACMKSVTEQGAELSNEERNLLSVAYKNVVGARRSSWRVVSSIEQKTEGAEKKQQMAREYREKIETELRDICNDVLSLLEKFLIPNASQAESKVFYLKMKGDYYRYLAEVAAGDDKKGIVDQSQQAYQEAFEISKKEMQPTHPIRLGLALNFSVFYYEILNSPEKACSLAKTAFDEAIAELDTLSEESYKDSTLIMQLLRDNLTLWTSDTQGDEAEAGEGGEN

Take `Cc1ncc(NC(=O)c2ccnc(C(C)(C)C#N)c2)cc1-c1cnc(N2CCOC[C@@H]2C)c(C#N)c1` [Example 87, (S)-N-(5′-cyano-2-methyl-6′-(3-methylmorpholino)-[3,3′-bipyridin]-5-yl)-2-(2-cyanopropan-2-yl)isonicotinamide]: the IC50 in test [1] amounted to 1.15 nM; in test [2], 3.02 nM. The like results for `Cc1ncc(NC(=O)c2cccc(C(F)F)c2)cc1-c1cnc(NC2CCOCC2)c(C#N)c1` [Example 172, N-(5′-cyano-2-methyl-6′-((tetrahydro-2H-pyran-4-yl)amino)-[3,3′-bipyridin]-5-yl)-3-(difluoromethyl) benzamide] were, in that order, 0.356 nM and 1.09 nM. Consider `Cc1ccc(NC(=O)c2ccnc(C(C)(F)F)c2)cc1-c1cnc(N2CCNCC2)c(C#N)c1` [Example 161, N-(3-(5-cyano-6-(piperazin-1-yl)pyridin-3-yl)-4-methylphenyl)-2-(1,1-difluoroethyl) isonicotinamide], for which the half-maximal inhibitory concentration (IC50) amounted to 0.153 nM in test [1] and 0.577 nM in test [2]. The matching figures for `Cc1cn(-c2ncc(-c3cc(NC(=O)c4ccnc(C(C)(C)C#N)c4)cnc3C)cc2C#N)cn1` [Example 84, N-(5′-cyano-2-methyl-6′-(4-methyl-1H-imidazol-1-yl)-[3,3′-bipyridin]-5-yl)-2-(2-cyanopropan-2-yl)isonicotinamide]: 5.1 nM and 25.1 nM. The matching figures for `Cc1ccc(NC(=O)c2ccnc(C(F)(F)F)c2)cc1-c1cnc(C(C)C)c(C#N)c1` [Example 121, N-(3-(5-cyano-6-isopropylpyridin-3-yl)-4-methylphenyl)-2-(trifluoromethyl) isonicotinamide]: 0.307 nM and 0.871 nM. Regarding `Cc1ncc(NC(=O)c2ccnc(C(F)(F)F)c2)cc1-c1cnc(Oc2ccccn2)c(C#N)c1` [Example 52, N-(5′-cyano-2-methyl-6′-(pyridin-2-yloxy)-[3,3′-bipyridin]-5-yl)-2-(trifluoromethyl) isonicotinamide], the concentration for half-maximal inhibition (IC50) in test [1] was 9.28 nM; in test [2], 27.2 nM. The matching figures for `Cc1ccc(NC(=O)c2cccc(C(F)(F)F)c2)cc1-c1cnc(Cl)c(C#N)c1` [Example 33, N-(3-(6-chloro-5-cyanopyridin-3-yl)-4-methylphenyl)-3-(trifluoromethyl)benzamide]: 0.432 nM and 3.4 nM. Take `Cc1ncc(NC(=O)c2cccc(C(F)F)c2)cc1-c1cnc(N2CCOCC2)c(C#N)c1` [Example 132, N-(5′-cyano-2-methyl-6′-morpholino-[3,3′-bipyridin]-5-yl)-3-(difluoromethyl) benzamide]: the IC50 in test [1] was determined as 0.117 nM; in test [2], 0.542 nM. The like results for `Cc1ccc(NC(=O)c2ccnc(C(F)F)c2)cc1-c1cnc(N2CCOCC2)c(C#N)c1` [Example 154, N-(3-(5-cyano-6-morpholinopyridin-3-yl)-4-methylphenyl)-2-(difluoromethyl) isonicotinamide] were, in that order, 0.0675 nM and 0.342 nM.

Regarding `COCCNc1ncc(-c2cc(NC(=O)c3cc(C(F)(F)F)ccn3)cnc2C)cc1C#N` [Example 229, N-(5′-cyano-6′-((2-methoxyethyl)amino)-2-methyl-[3,3′-bipyridin]-5-yl)-4-(trifluoromethyl) picolinamide], the IC50 was determined as 1.37 nM in test [1] and 5 nM in test [2]. In the case of `Cc1ncc(NC(=O)c2ccnc(C(F)(F)F)c2)cc1-c1cnc(S(C)(=O)=O)c(C#N)c1` [Example 45, N-(5′-cyano-2-methyl-6′-(methylsulfonyl)-[3,3′-bipyridin]-5-yl)-2-(trifluoromethyl) isonicotinamide], the half-maximal inhibitory concentration (IC50) in test [1] is 1.13 nM; in test [2], 5.95 nM. The matching figures for `Cc1ncc(NC(=O)c2cnnc(C(F)(F)F)c2)cc1-c1cnc(N2CCOCC2)c(C#N)c1` [Example 142, N-(5′-cyano-2-methyl-6′-morpholino-[3,3′-bipyridin]-5-yl)-6-(trifluoromethyl) pyridazine-4-carboxamide]: 0.344 nM and 2.79 nM. For the molecule `Cc1ncc(NC(=O)c2ccnc(C(C)(C)C#N)c2)cc1-c1cnc(-c2ccnnc2)c(C#N)c1` [Example 115], the IC50 in test [1] came out at 11.5 nM; in test [2] it was 70.6 nM.

In the case of `Cc1ncc(NC(=O)c2ccnc(C3(C#N)CC3)c2)cc1-c1cnc(C2CCOCC2)c(C#N)c1` [Example 148, N-(5'-cyano-2-methyl-6'-(tetrahydro-2H-pyran-4-yl)-[3,3'-bipyridin]-5-yl)-2-(1-cyanocyclopropyl) isonicotinamide], the values for the IC50 in test [1] and in test [2] were 0.731 nM and 3.34 nM, respectively. `CCn1cc(C(=O)Nc2ccc(C)c(-c3cnc(N4CCNCC4)c(C#N)c3)c2)cc(C(F)(F)F)c1=O` [Example 162, N-(3-(5-cyano-6-(piperazin-1-yl)pyridin-3-yl)-4-methylphenyl)-1-ethyl-6-oxo-5-(trifluoromethyl)-1,6-dihydropyridine-3-carboxamide]: the half-maximal inhibitory concentration (IC50) was 0.522 nM in test [1] and 2.48 nM in test [2]. The matching figures for `Cc1ncc(NC(=O)c2ccnc(C(C)(C)C#N)c2)cc1-c1cnc(N2CCO[C@@H](C)C2)c(C#N)c1` [Example 74, (S)-N-(5′-cyano-2-methyl-6′-(2-methylmorpholino)-[3,3′-bipyridin]-5-yl)-2-(2-cyanopropan-2-yl)isonicotinamide]: 1.64 nM and 5.54 nM.

As for `Cc1ncc(NC(=O)c2cc(C(C)(C)C#N)ccn2)cc1-c1cnc(N2CCOCC2)c(C#N)c1` [Example 230, N-(5′-cyano-2-methyl-6′-morpholino-[3,3′-bipyridin]-5-yl)-4-(2-cyanopropan-2-yl)picolinamide], the IC50 in test [1] came out at 0.384 nM; in test [2], 2.62 nM. The matching figures for `Cc1ncc(NC(=O)c2ccnc(C(C)C)c2)cc1-c1cnc(C2CCOCC2)c(C#N)c1` [Example 130, N-(5′-cyano-2-methyl-6′-(tetrahydro-2H-pyran-4-yl)-[3,3′-bipyridin]-5-yl)-2-isopropyl-isonicotinamide]: 0.879 nM and 4.83 nM. The like results for `Cc1ccc(NC(=O)c2cccc(C(F)(F)F)c2)cc1-c1cc(C#N)cnc1N` [Example 13, N-(3-(2-amino-5-cyanopyridin-3-yl)-4-methylphenyl)-3-(trifluoromethyl) benzamide] were, in that order, 0.284 nM and 5.61 nM. The matching figures for `Cc1ccc(NC(=O)c2ccnc(S(C)(=O)=O)c2)cc1-c1cnc(C2CCOCC2)c(C#N)c1` [Example 138, N-(3-(5-cyano-6-(tetrahydro-2H-pyran-4-yl)pyridin-3-yl)-4-methylphenyl)-2-(methylsulfonyl) isonicotinamide]: 0.511 nM and 4.14 nM. For `Cc1ncc(NC(=O)c2cc(C(C)C)on2)cc1-c1cnc(N(C)C)c(C#N)c1` [Example 269, N-(5′-cyano-6′-(dimethylamino)-2 methyl-[3,3′-bipyridin]-5-yl)-5-isopropylisoxazole-3-carboxamide], the results for the concentration for half-maximal inhibition (IC50) in test [1] and in test [2] were 0.636 nM and 6.15 nM, respectively. `Cc1cc(C(=O)Nc2cnc(C)c(-c3cnc(N(C)C)c(C#N)c3)c2)n(C)n1` [Example 265, N-(5′-cyano-6′-(dimethylamino)-2-methyl-[3,3′-bipyridin]-5-yl)-1,3-dimethyl-1H-pyrazole-5-carboxamide] yielded a 50% inhibitory concentration (IC50) in test [1] of 312 nM.

For the origin of these results see patent US10392404B2, “Compounds and compositions as kinase inhibitors” (NOVARTIS AG, priority 2014, dated 2019).
